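These data come from cells grown in 96-well plates and exposed to compound for 48 hours at five concentrations. The concentration for 50% growth inhibition is given as GI50. The concentration for full growth arrest is given as TGI.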
What was measured:
Assay in all cases: NCI anticancer screen, dose series, 48 h
786-0 renal = test system: 786-0 renal
A498 renal = test system: A498 renal
A549 NSCLC = test system: A549 NSCLC
ACHN renal = test system: ACHN renal
BT-549 breast = test system: BT-549 breast
CAKI-1 renal = test system: CAKI-1 renal
CCRF-CEM leukemia = test system: CCRF-CEM leukemia
COLO 205 colon = test system: COLO 205 colon
DU-145 prostate = test system: DU-145 prostate
EKVX NSCLC = test system: EKVX NSCLC
HCC-2998 colon = test system: HCC-2998 colon
HCT-116 colon = test system: HCT-116 colon
HCT-15 colon = test system: HCT-15 colon
HL-60(TB) leukemia = test system: HL-60(TB) leukemia
HOP-62 NSCLC = test system: HOP-62 NSCLC
HOP-92 NSCLC = test system: HOP-92 NSCLC
HS 578T breast = test system: HS 578T breast
HT29 colon = test system: HT29 colon
IGROV1 ovarian = test system: IGROV1 ovarian
K-562 leukemia = test system: K-562 leukemia
KM12 colon = test system: KM12 colon
LOX IMVI melanoma = test system: LOX IMVI melanoma
M14 melanoma = test system: M14 melanoma
MALME-3M melanoma = test system: MALME-3M melanoma
MCF7 breast = test system: MCF7 breast
MDA-MB-231 breast = test system: MDA-MB-231 breast
MDA-MB-435 = test system: MDA-MB-435
MOLT-4 leukemia = test system: MOLT-4 leukemia
NCI-H226 lung = test system: NCI-H226 lung
NCI-H460 lung = test system: NCI-H460 lung
NCI-H522 lung = test system: NCI-H522 lung
NCI/ADR-RES ovarian = test system: NCI/ADR-RES ovarian
OVCAR-3 ovarian = test system: OVCAR-3 ovarian
OVCAR-4 ovarian = test system: OVCAR-4 ovarian
OVCAR-5 ovarian = test system: OVCAR-5 ovarian
OVCAR-8 ovarian = test system: OVCAR-8 ovarian
PC-3 prostate = test system: PC-3 prostate
RPMI-8226 leukemia = test system: RPMI-8226 leukemia
RXF 393 renal = test system: RXF 393 renal
SF-268 CNS = test system: SF-268 CNS
SF-295 CNS = test system: SF-295 CNS
SF-539 CNS = test system: SF-539 CNS
SK-MEL-2 melanoma = test system: SK-MEL-2 melanoma
SK-MEL-28 melanoma = test system: SK-MEL-28 melanoma
SK-MEL-5 melanoma = test system: SK-MEL-5 melanoma
SK-OV-3 ovarian = test system: SK-OV-3 ovarian
SN12C renal = test system: SN12C renal
SNB-19 CNS = test system: SNB-19 CNS
SNB-75 CNS = test system: SNB-75 CNS
SR leukemia = test system: SR leukemia
SW-620 colon = test system: SW-620 colon
T-47D breast = test system: T-47D breast
TK-10 renal = test system: TK-10 renal
U251 CNS = test system: U251 CNS
UACC-257 melanoma = test system: UACC-257 melanoma
UACC-62 melanoma = test system: UACC-62 melanoma
UO-31 renal = test system: UO-31 renal

In the case of `O=C(Nc1cc(Cl)cc(Cl)c1)Nc1ccc2oc(=O)ccc2c1`, the GI50 (786-0 renal) is reported as 3.08 µM, the TGI (786-0 renal) is reported as 11.7 µM and the GI50 (A498 renal) is reported as 2.59 µM. For the same molecule, the TGI (A498 renal) was 7.07 µM, the GI50 (A549 NSCLC) was 2.9 µM and the TGI (A549 NSCLC) was 12.2 µM. It also gave a GI50 (ACHN renal) of 3.3 µM, a TGI (ACHN renal) of 11.2 µM and a GI50 (BT-549 breast) of 2.86 µM. It also gave a TGI (BT-549 breast) of 9.06 µM, a GI50 (CAKI-1 renal) of 2.28 µM and a TGI (CAKI-1 renal) of 7.49 µM. For the same molecule, the GI50 (CCRF-CEM leukemia) was 2.3 µM, the TGI (CCRF-CEM leukemia) was 7.62 µM and the GI50 (COLO 205 colon) was 2.19 µM. The TGI (COLO 205 colon) was 4.63 µM, the GI50 (DU-145 prostate) was 3.87 µM and the TGI (DU-145 prostate) was 13.8 µM. For the same molecule, the GI50 (EKVX NSCLC) was 2.87 µM, the TGI (EKVX NSCLC) was 12.4 µM and the GI50 (HCC-2998 colon) was 3.24 µM. The TGI (HCC-2998 colon) was 11.4 µM, the GI50 (HCT-116 colon) was 2.31 µM and the TGI (HCT-116 colon) was 8.7 µM. It also gave a GI50 (HCT-15 colon) of 2.69 µM, a TGI (HCT-15 colon) of 10.9 µM and a GI50 (HL-60(TB) leukemia) of 1.27 µM. The TGI (HL-60(TB) leukemia) was 4.43 µM, the GI50 (HOP-62 NSCLC) was 2.98 µM and the TGI (HOP-62 NSCLC) was 9.87 µM. For the same molecule, the GI50 (HOP-92 NSCLC) was 1.86 µM, the TGI (HOP-92 NSCLC) was 5.52 µM and the GI50 (HS 578T breast) was 3.14 µM. For the same molecule, the TGI (HS 578T breast) was 14.5 µM, the GI50 (HT29 colon) was 2.59 µM and the TGI (HT29 colon) was 9.86 µM. It also gave a GI50 (IGROV1 ovarian) of 3.28 µM, a TGI (IGROV1 ovarian) of 15.1 µM and a GI50 (K-562 leukemia) of 2.34 µM. It also gave a TGI (K-562 leukemia) of 18 µM, a GI50 (KM12 colon) of 3.05 µM and a TGI (KM12 colon) of 10.8 µM. For the same molecule, the GI50 (LOX IMVI melanoma) was 2.04 µM, the TGI (LOX IMVI melanoma) was 4.66 µM and the GI50 (M14 melanoma) was 3.39 µM. It also gave a TGI (M14 melanoma) of 11.9 µM, a GI50 (MALME-3M melanoma) of 2.64 µM and a TGI (MALME-3M melanoma) of 7.42 µM. For the same molecule, the GI50 (MCF7 breast) was 2.28 µM, the TGI (MCF7 breast) was 8.09 µM and the GI50 (MDA-MB-231 breast) was 2.75 µM. The TGI (MDA-MB-231 breast) was 7.87 µM, the GI50 (MDA-MB-435) was 2.77 µM and the TGI (MDA-MB-435) was 10.2 µM. It also gave a GI50 (MOLT-4 leukemia) of 2.32 µM, a TGI (MOLT-4 leukemia) of 7.31 µM and a GI50 (NCI-H226 lung) of 2.67 µM. The TGI (NCI-H226 lung) was 8.81 µM, the GI50 (NCI-H460 lung) was 2.27 µM and the TGI (NCI-H460 lung) was 7.39 µM. The GI50 (NCI-H522 lung) was 1.39 µM, the TGI (NCI-H522 lung) was 4.01 µM and the GI50 (NCI/ADR-RES ovarian) was 2.47 µM. For the same molecule, the TGI (NCI/ADR-RES ovarian) was 8.91 µM, the GI50 (OVCAR-3 ovarian) was 3.24 µM and the TGI (OVCAR-3 ovarian) was 13.1 µM. The GI50 (OVCAR-4 ovarian) was 3.23 µM, the TGI (OVCAR-4 ovarian) was 14.1 µM and the GI50 (OVCAR-5 ovarian) was 3.19 µM. For the same molecule, the TGI (OVCAR-5 ovarian) was 12.1 µM, the GI50 (OVCAR-8 ovarian) was 2.73 µM and the TGI (OVCAR-8 ovarian) was 11 µM. It also gave a GI50 (PC-3 prostate) of 1.9 µM, a TGI (PC-3 prostate) of 11 µM and a GI50 (RPMI-8226 leukemia) of 1.53 µM. It also gave a TGI (RPMI-8226 leukemia) of 4.89 µM, a GI50 (RXF 393 renal) of 2.57 µM and a TGI (RXF 393 renal) of 6.72 µM. The GI50 (SF-268 CNS) was 3.91 µM, the TGI (SF-268 CNS) was 17.2 µM and the GI50 (SF-295 CNS) was 2.34 µM. For the same molecule, the TGI (SF-295 CNS) was 6.05 µM, the GI50 (SF-539 CNS) was 2.9 µM and the TGI (SF-539 CNS) was 8.98 µM. The GI50 (SK-MEL-2 melanoma) was 2.03 µM, the TGI (SK-MEL-2 melanoma) was 4.84 µM and the GI50 (SK-MEL-28 melanoma) was 3.71 µM. The TGI (SK-MEL-28 melanoma) was 13.7 µM, the GI50 (SK-MEL-5 melanoma) was 1.66 µM and the TGI (SK-MEL-5 melanoma) was 3.11 µM. It also gave a GI50 (SK-OV-3 ovarian) of 2.24 µM, a TGI (SK-OV-3 ovarian) of 5.7 µM and a GI50 (SN12C renal) of 2.92 µM. The TGI (SN12C renal) was 10.6 µM, the GI50 (SNB-19 CNS) was 3.73 µM and the TGI (SNB-19 CNS) was 15.2 µM. It also gave a GI50 (SNB-75 CNS) of 2.24 µM, a TGI (SNB-75 CNS) of 14 µM and a GI50 (SR leukemia) of 1.98 µM. For the same molecule, the TGI (SR leukemia) was 5.82 µM, the GI50 (SW-620 colon) was 3.5 µM and the TGI (SW-620 colon) was 13.5 µM. For the same molecule, the GI50 (T-47D breast) was 1.93 µM, the TGI (T-47D breast) was 7.5 µM and the GI50 (TK-10 renal) was 3.12 µM. It also gave a TGI (TK-10 renal) of 9.51 µM, a GI50 (U251 CNS) of 2.43 µM and a TGI (U251 CNS) of 7.51 µM. For the same molecule, the GI50 (UACC-257 melanoma) was 2.23 µM, the TGI (UACC-257 melanoma) was 6.78 µM and the GI50 (UACC-62 melanoma) was 2.92 µM. For the same molecule, the TGI (UACC-62 melanoma) was 12.3 µM, the GI50 (UO-31 renal) was 1.94 µM and the TGI (UO-31 renal) was 7.48 µM.
